For orientation: IC50 means the concentration at which inhibition is half-maximal. As usually defined, the inhibition is the change of the read-out against control, counted positive when it falls.

For one experiment, the target named is T1, Aldehyde dehydrogenase 1A1 (Homo sapiens, UniProt P00352).
T1 sequence (P00352 whole entry): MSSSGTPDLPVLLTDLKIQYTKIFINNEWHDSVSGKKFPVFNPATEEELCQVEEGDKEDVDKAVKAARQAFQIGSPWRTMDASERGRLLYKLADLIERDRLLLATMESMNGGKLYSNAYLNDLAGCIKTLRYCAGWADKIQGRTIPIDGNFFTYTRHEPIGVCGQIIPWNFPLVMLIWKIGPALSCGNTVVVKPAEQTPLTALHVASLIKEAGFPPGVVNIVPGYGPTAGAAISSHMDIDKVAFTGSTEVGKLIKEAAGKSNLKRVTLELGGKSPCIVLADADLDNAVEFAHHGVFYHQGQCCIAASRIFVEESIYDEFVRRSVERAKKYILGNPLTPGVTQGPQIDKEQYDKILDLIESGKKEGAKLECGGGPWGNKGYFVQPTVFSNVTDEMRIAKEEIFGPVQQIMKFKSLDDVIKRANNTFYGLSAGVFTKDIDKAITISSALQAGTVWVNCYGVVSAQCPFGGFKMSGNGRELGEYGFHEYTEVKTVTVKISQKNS
The experiment in a line: Inhibition of N-terminal Met/His6-tagged recombinant human ALDH1A1 (Ser2-Ser501 residues) expressed in Escherichia coli cells using propionaldehyde as substrate preincubated for 15 mins followed by substrate addition by spectrophotometric method.
As to `CC(C)=CCN(C(=O)CCN1CCN(C(=O)c2cccc([N+](=O)[O-])c2)CC1)c1ccc2c(C)cc(=O)oc2c1`, the IC50 is 29.3 µM.

Another experiment deals with T2, Aldehyde dehydrogenase 1A1 (Homo sapiens) (UniProt P00352).
T2 sequence (whole entry): T1 sequence (P00352 whole entry)
The experiment in a line: Inhibition of N-terminal Met/His6-tagged recombinant human ALDH1A1 (Ser2-Ser501 residues) expressed in Escherichia coli cells at 10 uM using propionaldehyde as substrate preincubated for 15 mins followed by substrate addition by spectrophotometric method relative to control.
Consider `CC(C)=CCN(C(=O)CCN1CCN(C(=O)c2ccccc2F)CC1)c1ccc2c(C)cc(=O)oc2c1`, for which the inhibition was 51.8%.

Consider `CC(C)=CCN(C(=O)CCN1CCN(C(=O)c2cccnc2)CC1)c1ccc2c(C)cc(=O)oc2c1`, for which the inhibition is 26.6%. Take `Cc1cc(=O)oc2cc(N(CC3CCCC3)C(=O)CCN3CCN(C(=O)c4ccco4)CC3)ccc12`: the inhibition was found to be 17.4%. The same measure, in the same setting: under `Cc1cc(=O)oc2cc(N(CCC(C)C)C(=O)CCN3CCN(C(=O)c4ccco4)CC3)ccc12` stands 25.5%; under `CCCN(C(=O)CCN1CCN(C(=O)c2ccco2)CC1)c1ccc2c(C)cc(=O)oc2c1`, 50.7%; under `CC(C)=CCN(C(=O)CCN1CCN(C(=O)c2ccc(C#N)cc2)CC1)c1ccc2c(C)cc(=O)oc2c1`, 34.1%. On to `Cc1cc(=O)oc2cc(N(CC3CC3)C(=O)CCN3CCN(C(=O)c4ccco4)CC3)ccc12`, for which the inhibition worked out at 32%. On to `CC(C)=CCN(C(=O)CCN1CCN(C(=O)c2ccc(C)cc2)CC1)c1ccc2c(C)cc(=O)oc2c1`, for which the inhibition came to 49.7%. Regarding `Cc1cc(=O)oc2cc(N(CC3CCC3)C(=O)CCN3CCN(C(=O)c4ccco4)CC3)ccc12`, the inhibition was found to be 35.1%. For `Cc1ccccc1CN(C(=O)CCN1CCN(C(=O)c2ccco2)CC1)c1ccc2c(C)cc(=O)oc2c1`, the inhibition was found to be 13.2%.

Regarding `CC(C)=CCN(C(=O)CCN1CCN(C(=O)c2ccc([N+](=O)[O-])cc2)CC1)c1ccc2c(C)cc(=O)oc2c1`, the inhibition worked out at 47.1%. With `CC(C)=CCN(C(=O)CCN1CCN(C(=O)c2ccc(F)cc2)CC1)c1ccc2c(C)cc(=O)oc2c1`, the inhibition was found to be 25.1%. For the molecule `CC(C)=CCN(C(=O)CCN1CCN(C(=O)c2ccc(C(F)(F)F)cc2)CC1)c1ccc2c(C)cc(=O)oc2c1`, the inhibition came out at 33.7%.

For `CC(C)=CCN(C(=O)CCCN1CCN(C(=O)c2ccco2)CC1)c1ccc2c(C)cc(=O)oc2c1`, the inhibition was found to be 4.77%. Still for that read-out and setting: under `Cc1ccc(CN(C(=O)CCN2CCN(C(=O)c3ccco3)CC2)c2ccc3c(C)cc(=O)oc3c2)cc1` stands 6.43%. As to `CC(C)=CCN(C(=O)CCN1CCN(C(=O)c2ccncc2)CC1)c1ccc2c(C)cc(=O)oc2c1`, the inhibition came to 23.5%. As to `Cc1cc(=O)oc2cc(N(Cc3ccccc3)C(=O)CCN3CCN(C(=O)c4ccco4)CC3)ccc12`, the inhibition is 2.96%. Still for that read-out and setting: the value for `CC(C)=CCN(C(=O)CCN1CCN(C(=O)c2ccc3c(c2)OCO3)CC1)c1ccc2c(C)cc(=O)oc2c1` was 50.8%. `Cc1cccc(CN(C(=O)CCN2CCN(C(=O)c3ccco3)CC2)c2ccc3c(C)cc(=O)oc3c2)c1`: the inhibition was 9.77%. For the molecule `CCCCN(C(=O)CCN1CCN(C(=O)c2ccco2)CC1)c1ccc2c(C)cc(=O)oc2c1`, the inhibition came out at 26.5%.

With `Cc1cc(=O)oc2cc(N(CC3CCCCC3)C(=O)CCN3CCN(C(=O)c4ccco4)CC3)ccc12`, the inhibition came out at 26.2%.

As to `CC(C)=CCN(C(=O)CN1CCN(C(=O)c2ccco2)CC1)c1ccc2c(C)cc(=O)oc2c1`, the inhibition came out at 33.6%. For the molecule `CC(C)=CCN(C(=O)CCN1CCN(C(=O)c2cccc([N+](=O)[O-])c2)CC1)c1ccc2c(C)cc(=O)oc2c1`, the inhibition is 55.4%.

Source of the values: ChEMBL document CHEMBL4602633, “Discovery of coumarin-based selective aldehyde dehydrogenase 1A1 inhibitors with glucose metabolism improving activity” (Eur J Med Chem, 2020).
